Literature values in US20250255825A1, “POLYMER-LIPID NANOCOMPLEX FOR ENHANCED AQUEOUS SOLUBILISATION AND ABSORPTION OF HYDROPHOBIC ACTIVE COMPOUNDS” (priority 2019, published 2025).
Like-named read-outs stand apart in the source and are kept apart here.

Experiments:
[1] = partition coefficient octanol/water
[2] = system: malaria parasitaemia in the blood; settings: reported value for un-formulated LUM
[3] = not given; remark: listed apart in the source

Row | Log P [1] | half-life (T½) (in vivo) [days] | highest concentration (Cmax) in the blood (orally administered) [µg/mL] | time to reach the highest concentration (Tmax) (orally administered) | protein bound (plasma proteins) [%] | SMILES | effective dose (ED90) to clear 90% of parasitaemia in the blood [2] [mg/kg] | bioavailability ([3]; inhalation) | bioavailability ([3]; orally)
1 | 9 | 4 to 5 | 7 | about 6 hours | 99.7 | CCCCN(CCCC)CC(O)c1cc(Cl)cc2c1-c1ccc(Cl)cc1/C2=C/c1ccc(Cl)cc1 (racemic) [Lumefantrine] | 12.01 |  | 
2 |  |  |  |  |  | C=C(C)[C@@H]1CCC(C)=C[C@H]1c1c(O)cc(CCCCC)cc1O [Cannabidiol] |  | 11-45% | 13-19%
